# Measurements published in patent US20140230091A1, “MODIFIED PLANTS WITH INCREASED OIL CONTENT” (BROOKHAVEN SCIENCE ASSOCIATES, LLC, priority 2011, published 2014).
# Tests used:
# B. napus cells [1] = test: Quantification of free fatty acid, acyl-ACP and acyl-CoA pools in cells; format: cell-based, Brassica napus; conditions: cells fed 13C-oleoyl-Tween, at 3 hours
# Description: Free fatty acids were extracted from tissue by quenching ˜300 mg of frozen cells in 2 mL boiling isopropanol for 5 min. Once cooled, 2 mL of 0.9% NaCl was added and lipids were extracted twice with 4 mL of hexane. Neutral lipids were separated by TLC and free fatty acids were scraped, made into FAMEs, and analyzed by GC-FID or GC-MS as described above. Acyl-CoAs were extracted from ˜15 mg FW of cells and quantified as previously described (Larson and Graham 2001, Plant J, 25, 115-125). Acyl-ACPs were extracted and quantified as previously described (Kopka, Ohlrogge and Jaworski 1995, Anal Biochem, 224, 51-60) with the following modifications: 1) Internal standards used were 11:0-CoA (Sigma) and 17:0—ACP made from Spinach ACP as previously described (Broadwater and Fox 1999, Protein Expr Purif, 15, 314-326). 2) Fully dissolving TCA precipitated proteins required three extractions with MOPS buffer rather than just one.
# 1986 Plant Physiol, 82, 771-779). Free fatty acids can be activated by esterification to CoA or ACP before being deposited in cellular lipids. Steady state pools acyl-ACP and acyl-CoA as well as free fatty acids (FFA) were measured in cells fed Tween-80. After three hours of feeding, 18:1 FFA appeared where there was none detected in untreated cells (FIG. 9a). […] In a separate experiment designed to distinguish the incorporation of fatty acids from Tween from secondary effects of feedback inhibition, FFA and acylACPs were analyzed in cells fed ^13C-oleoyl-Tween. […] First, the in vivo concentrations of these intermediates were calculated based on the range of values in FIG. 9 and the water content of the cells. […] However, considering that acyl-ACPs are restricted to the plastid, the volume of which in developing embryos was determined to be 10% of the cell (Mansfield and Briarty 1992, Can J Bot, 70, 151-164), the estimate increased to 5-10 μM. […] Thioesterase activity was measured using the same conditions as the ACCase assay. […]
# B. napus cells [2] = test: Quantification of fatty acid uptake from 13C-oleoyl-Tween by B. napus cells; format: cell-based, Brassica napus; conditions: 10 mM 13C-oleoyl-Tween
# Description: Lipids were extracted from up to 100 mg fresh weight of frozen cells by homogenizing twice in 500 μL of methanol:chloroform:formic acid (20:10:1 v/v) using glass beads. The combined organic solvent was extracted with 500 μL of 1 M KCl, 0.2 M H3PO4 and the organic phase was recovered, dried under N2, and resuspended in hexane. Lipid classes were separated by TLC using silica gel G TLC Uniplates (Analtech, Newark, Del., USA) with hexane:diethylether:acetic acid (80:20:1, v/v) for neutral lipids or with acetone:toluene:water (91:30:7 v/v) with 0.15 M ammonium sulfate impregnated plates for polar lipids. Loading was equivalent to 10 or 20 mg fresh weight. Lipids were visualized with iodine vapor.
# Fatty acid quantification was done by analysis of fatty acid methyl esters (FAMEs). […] FAMEs resuspended in hexane were analyzed with an HP6890 gas chromatograph-flame ionization detector (Agilent Technologies) or an HP5890 gas chromatograph-mass spectrometer (Hewlett-Packard) fitted with 60 m×250 μm SP-2340 capillary columns (Supelco). […]
# 1-^13C-oleic acid was obtained from Cambridge Isotope Laboratories (Andover, Mass., USA). […] Lipid extraction and GC/MS was done as described above. ^13C-fatty acids were detected and quantified and corrected for natural isotope abundance as previously described (Schwender et al. 2003, J Biol Chem, 278, 29442-29453). […]
# ACCase = ACCase enzyme assay on crude cell extracts; format: biochemical, Brassica napus
# Description: All chemicals were obtained from Sigma and radioisotopes from American Radiolabeled Chemicals. ACCase activity was measured as the acetyl-CoA dependent incorporation of ^14C—NaHC03 into acid and stable products. Crude cell extracts were prepared by grinding fresh cells in 3 volumes (w/v) of 50 mM Tris-Cl, pH 7.5, 100 mM KCl, 5 mM MgCl2, 1 mM DTT, 0.1% TritonX-100, 10% glycerol, and plant protease inhibitor cocktail (Sigma). Homogenate was gently mixed on ice for 10 min and then centrifuged for 5 min at 3000 g. Desalting of extracts was done with PD-10 columns (GE Life Sciences). […] Reactions were initiated by the addition of 5 μlL cell extract and were stopped by the addition of 15 μL 12 N HCL. The contents were dried completely at 55° C. and the solids were resuspended in 30 μL water and counted by liquid scintillation spectroscopy. Minus acetyl-CoA controls were always included. Assays went for 30 min, except when measuring the effects of metabolites (10 min). Metabolites were added to the reaction immediately after cell extract to preserve labile thioester bonds. FFA stock solutions were made in ethanol and acyl-CoAs were suspended in water.
# [3] = test system: fatty acid synthesis in B. napus cells; test: 14C-acetate / 14C-malonate labeling of lipids (feedback inhibition of fatty acid synthesis); format: cell-based, Brassica napus; conditions: for Relative 14C-acetate incorporation (% control): relative to a control sample without any Tweens, mean of three repeats ± SD
# Description: All radioisotopes were obtained from American Radiolabeled Chemicals (St. Louis, Mo. USA). Labeling was conducted on cells 5 days after subculturing with a culture density of ˜20 mg FW mL^−1 and that had medium refreshed 16 h prior. For labeling, three 1 mL aliquots of cells were carefully removed from each flask and were labeled with either 0.2 μCi of 1,2-^14C-acetate (50-60 mCi mmol^−1) or 2-^14C-malonate (40-60 mCi mmol^−1) for 15 minutes at 25° C. with occasional shaking. Haloxyfop (Sigma) was dissolved in DMSO and added 30 min prior to labeling. Lipids were extracted and separated by TLC as described above. Radioactivity was detected by phosphorimaging and was quantified using ImageQuant software (GE Healthcare, Piscataway, N.J., USA). Incorporation of label into individual fatty acids was determined by making FAMEs as described above, separating the methyl esters by TLC as described in (Koo, Fulda, Browse and Ohlrogge 2005, Plant J, 44, 620-632) and measuring radioactivity by phosphorimaging.
# Feedback inhibition of fatty acid synthesis was measured by the addition of a ^14C-acetate tracer. […] Sterol synthesis is dependent on acetyl-CoA and ATP, both of which are required for fatty acid synthesis. Therefore, if fatty acid synthesis is inhibited due to substrate limitation; so should be sterol biosynthesis. ^14C-acetate incorporation into sterols was unaffected by Tween-80 feeding, while incorporation into free fatty acids mirrored that of total lipids (FIG. 5), showing that the effect is restricted to fatty acid synthesis. […] Three hour time points were used for the remainder of this study to separate the period of maximum feedback inhibition from any lipid homeostatic mechanisms arising from the gross fatty acid compositional changes caused by long term Tween-80 feeding.
# Plants contain plastidic and cytosolic ACCase and F AS enzyme systems, both of which are capable of incorporating ^14C-acetate into fatty acids. Comparing the distribution of label in individual fatty acid species can therefore provide information on the relative contribution of these pathways. […] The degree to which ^14C-acetate incorporation is inhibited by haloxyfop is proportional to cytosolic elongation activity, whereas haloxyfop-resistant incorporation is from the de nova pathway inside the plastid.
# To separate these possibilities, we exploited the fact that exogenous malonate can be converted to malonyl-CoA and used by FAS, bypassing the ACCase reaction (Kannangara et al. 1973, Plant Physiol, 52, 156-161). If ACCase is the only point of inhibition then the rate of ^14C-malonate labeling of de novo fatty acids should be the same in cultures with or without Tween-80. […] Therefore ACCase, and not F AS, is inhibited by Tween-80 feeding. When combined, the data from FIG. 6 unambiguously identify plastidic ACCase as the target of Tween-80 induced feedback inhibition.
# [4] = molecular target: Brassica napus plastidic (heteromeric) acetyl-CoA carboxylase, endogenous enzyme in crude cell extracts (Brassica napus); test: cell-based or functional assay
molecule,measurement,setting,value
1-^13C-oleoyl-Tween,percent of 18:1-ACP containing 13C-oleic acid,B. napus cells [1],46.2±4.2%
same,percent of 18:1 FFA containing 13C-oleic acid,B. napus cells [1],99.1±2.2%
same,13C-18:1 as proportion of the total 18:1,B. napus cells [2]; after three hours,about 10%
same,proportion of 13C-label in 18-carbon fatty acids,B. napus cells [2]; by 48 hours,about 70%
O=C(O)CCC(=O)C(=O)O [2-oxoglutarate],"ACCase activity, difference between control and Tween-80 fed cultures",ACCase; in the presence of 5 mM 2-oxoglutarate,no differences
"CCCCCCCC/C=C\CCCCCCCC(=O)SCCNC(=O)CCNC(=O)[C@H](O)C(C)(C)COP(=O)(O)OP(=O)(O)OC[C@H]1O[C@@H](n2cnc3c(N)ncnc32)[C@H](O)[C@@H]1OP(=O)(O)O [18:1-CoA, 18:1-Coenzyme A]",extent of ACCase inhibition,"ACCase; crude extract, physiological range of concentrations",partial
CC(Oc1ccc(Oc2ncc(C(F)(F)F)cc2Cl)cc1)C(=O)O (centres unmarked) [haloxyfop],reduction in ACCase activity,ACCase; crude extracts treated with haloxyfop,about 15%
O=C(O)CC(=O)O [malonate],inhibition of 14C-acetate incorporation on malonate feeding,[3]; malonate feeding,does not cause inhibition
"B. napus 18:1-ACP (18:1-Acyl Carrier Protein made from BnACP, GenBank:X13127.1, with 6x his-tag)","ACCase activity in crude B. napus cell extracts (acetyl-CoA dependent incorporation of 14C-NaHCO3, 10 min assay)",[4],> 3 µM
Tween-18:1,inhibition of acetate labeling of lipids,[3]; in words,maximum inhibition
same,Relative 14C-acetate incorporation (% control),[3],51.5 ± 6.7 % control
Tween-40,Relative 14C-acetate incorporation (% control),[3],84.4 ± 3.4 % control
Tween-60,Relative 14C-acetate incorporation (% control),[3],85.9 ± 3.4 % control
Tween-85,Relative 14C-acetate incorporation (% control),[3],48.8 ± 5.9 % control
